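In this assay, cells in 96-well plates receive the compound at five concentrations for 48 hours. Endpoints are linearly interpolated between the surrounding concentrations. TGI denotes the concentration required for complete inhibition of growth.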
Columns and labels:
Test in all cases: NCI-60 cell line screen, 48 h
[1] = test system: MOLT-4 leukemia
[2] = test system: HOP-92 NSCLC
[3] = test system: 786-0 renal
[4] = test system: SK-MEL-5 melanoma
[5] = test system: OVCAR-3 ovarian
[6] = test system: NCI-H460 lung
[7] = test system: CAKI-1 renal
[8] = test system: HCT-116 colon
[9] = test system: HS 578T breast
[10] = test system: ACHN renal
[11] = test system: MDA-MB-435
[12] = test system: K-562 leukemia
[13] = test system: MDA-N
[14] = test system: UO-31 renal
[15] = test system: HT29 colon
[16] = test system: SN12C renal
[17] = test system: TK-10 renal
[18] = test system: RPMI-8226 leukemia
[19] = test system: IGROV1 ovarian
[20] = test system: SK-MEL-28 melanoma
[21] = test system: BT-549 breast
[22] = test system: SK-OV-3 ovarian
[23] = test system: UACC-62 melanoma
[24] = test system: SR leukemia
[25] = test system: MDA-MB-231 breast
[26] = test system: T-47D breast
[27] = test system: SNB-75 CNS
[28] = test system: KM12 colon
[29] = test system: RXF 393 renal
[30] = test system: OVCAR-4 ovarian
[31] = test system: CCRF-CEM leukemia
[32] = test system: EKVX NSCLC
[33] = test system: A549 NSCLC
[34] = test system: OVCAR-5 ovarian
[35] = test system: HCC-2998 colon
[36] = test system: COLO 205 colon
[37] = test system: MCF7 breast
[38] = test system: SK-MEL-2 melanoma
[39] = test system: HL-60(TB) leukemia
[40] = test system: PC-3 prostate
[41] = test system: MALME-3M melanoma
[42] = test system: DU-145 prostate
[43] = test system: SF-295 CNS
[44] = test system: SF-539 CNS
[45] = test system: NCI/ADR-RES ovarian
[46] = test system: UACC-257 melanoma
[47] = test system: SW-620 colon
[48] = test system: M14 melanoma
[49] = test system: NCI-H23 lung
[50] = test system: HCT-15 colon
[51] = test system: NCI-H522 lung
[52] = test system: SF-268 CNS
[53] = test system: SNB-19 CNS
[54] = test system: OVCAR-8 ovarian
[55] = test system: U251 CNS
[56] = test system: NCI-H226 lung
[57] = test system: HOP-62 NSCLC
[58] = test system: LOX IMVI melanoma
[59] = test system: A498 renal

Measured: TGI

N#Cc1c(N)c2c(c(-c3ccccc3)c1-c1ccccc1)C(=O)N(N)C2=O
not listed: [57] | [58] | [59]
> 100 µM: all other assays above

Cc1ccccc1OC(C)C(=O)NN1C(=O)CC(=O)NC1=S (configuration not stated)
not listed: [31]
> 100 µM: all other assays above

COc1cc(C(=O)O)ccc1OS(=O)(=O)O
not listed: [59]
> 100 µM: all other assays above

From PubChem BioAssay (NCI)
